Measured values from the supplement of paper PMC10307832.

Tests used:
Experiment in all cases: relative viability (nuclei count vs DMSO), 5 days (fraction); higher = more cells survive
[1] = compound: C1COCCN1CC2=CC(=O)C(=CO2)OCCCCCSC3=C4C=CC(=CC4=NC=C3)C(F)(F)F [EHT 1864]
Procedure, shortened: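 Nuclei counted with MetaXpress define viability as the ratio of treated to vehicle wells, given as a median across plates. The lung cancer cell lines were in 1536-well plates, pinned with five √10-spaced library-drug doses and imaged at 4× after 5 days and Hoechst staining. Plates passed with control CV below 25% and at least one doubling.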

[2] = compound: C1COCCN1CC2=CC(=O)C(=CO2)OCCCCCSC3=C4C=CC(=CC4=NC=C3)C(F)(F)F [EHT 1864] + CC(=O)c1c(C)c2cnc(Nc3ccc(N4CCNCC4)cn3)nc2n(C2CCCC2)c1=O [Palbociclib] (partner 0.5 µM)
Procedure, shortened: (§1)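 Lung cancer cell lines were seeded in 1536-well plates and dosed by pin tool the next day, with either a single drug or a fixed anchor-drug dose combined with five library-drug doses (not always all listed) spaced in √10 steps. Five days later, one step fixed the cells and stained their nuclei (final 0.05% Triton X-100, 1% formaldehyde, 1 ug/ml Hoechst), and nuclei were counted on 4× images. Relative viability is the nuclei count in treated wells divided by the count in vehicle wells, and each value is the median of duplicate plates.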

[3] = compound: C1COCCN1CC2=CC(=O)C(=CO2)OCCCCCSC3=C4C=CC(=CC4=NC=C3)C(F)(F)F [EHT 1864] + COc1cc2c(Oc3ccc(NC(=O)C4(C(=O)Nc5ccc(F)cc5)CC4)cc3F)ccnc2cc1OCCCN1CCOCC1 [Foretinib] (partner 0.25 µM)
Procedure, shortened: as §1

[4] = compound: C1COCCN1CC2=CC(=O)C(=CO2)OCCCCCSC3=C4C=CC(=CC4=NC=C3)C(F)(F)F [EHT 1864] + COc1cccc2cc(-c3nc([C@H]4CC[C@H](C(=O)O)CC4)n4ncnc(N)c34)[nH]c12 [OSI-027] (partner 0.5 µM)
Procedure, shortened: as §1

| Cell Line | relative viability ([1]; 0.04 µM) | relative viability ([1]; 0.1265 µM) | relative viability ([1]; 0.4 µM) | relative viability ([1]; 1.265 µM) | relative viability ([1]; 4 µM) | relative viability ([2]; first compound 0.04 µM) | relative viability ([2]; first compound 0.1265 µM) | relative viability ([2]; first compound 0.4 µM) | relative viability ([2]; first compound 1.265 µM) | relative viability ([2]; first compound 4 µM) | relative viability ([3]; first compound 0.04 µM) | relative viability ([3]; first compound 0.1265 µM) | relative viability ([3]; first compound 0.4 µM) | relative viability ([3]; first compound 1.265 µM) | relative viability ([3]; first compound 4 µM) | relative viability ([4]; first compound 0.04 µM) | relative viability ([4]; first compound 0.1265 µM) | relative viability ([4]; first compound 0.4 µM) | relative viability ([4]; first compound 1.265 µM) | relative viability ([4]; first compound 4 µM) |
| --- | --- | --- | --- | --- | --- | --- | --- | --- | --- | --- | --- | --- | --- | --- | --- | --- | --- | --- | --- | --- |
| 201T | 0.97 | 0.92 | 1.02 | 0.974 | 0.913 | 0.345 | 0.36 | 0.353 | 0.307 | 0.356 | 0.964 | 1.05 | 1.16 | 0.99 | 1.08 | 0.762 | 0.549 | 0.623 | 0.572 | 0.744 |
| A-427 | 0.975 | 0.922 | 1.03 | 0.956 | 0.882 | 0.547 | 0.485 | 0.535 | 0.545 | 0.494 | 1.03 | 0.942 | 0.986 | 1.05 | 0.968 | 0.524 | 0.345 | 0.503 | 0.447 | 0.469 |
| ABC-1 | 1.13 | 0.964 | 0.946 | 0.7 | 0.627 | 0.629 | 0.631 | 0.692 | 0.687 | 0.577 | 1.22 | 1.06 | 1.03 | 0.954 | 0.834 | 0.469 | 0.504 | 0.48 | 0.513 | 0.436 |
| BEN | 0.864 | 0.812 | 1.05 | 0.871 | 0.967 | 0.468 | 0.493 | 0.472 | 0.435 | 0.47 | 0.702 | 0.585 | 0.827 | 0.484 | 0.771 | 0.303 | 0.278 | 0.297 | 0.299 | 0.302 |
| CAL-12T | 1.02 | 0.902 | 0.991 | 0.963 | 0.887 | 0.409 | 0.357 | 0.459 | 0.518 | 0.443 | 1 | 1.05 | 1 | 0.852 | 0.908 | 0.591 | 0.437 | 0.593 | 0.552 | 0.8 |
| COR-L23 | 0.964 | 0.885 | 0.956 | 0.971 | 0.824 | 0.336 | 0.216 | 0.336 | 0.283 | 0.272 | 1.01 | 0.922 | 1 | 0.948 | 0.86 | 0.821 | 0.467 | 0.647 | 0.796 | 0.747 |
| COR-L 105 | 0.893 | 0.869 | 1.05 | 0.975 | 0.945 | 0.362 | 0.417 | 0.411 | 0.414 | 0.41 | 0.959 | 1.02 | 1.25 | 1.19 | 0.917 | 0.773 | 0.559 | 0.851 | 0.61 | 0.655 |
| Calu-6 | 1 | 0.93 | 1.01 | 0.991 | 0.955 | – | – | – | – | – | 0.932 | 0.853 | 0.846 | 0.913 | 0.87 | – | – | – | – | – |
| ChaGo-K-1 | 1.02 | 0.976 | 0.996 | 0.95 | 0.992 | 0.946 | 0.904 | 0.951 | 0.852 | 0.911 | 0.858 | 0.888 | 0.809 | 0.895 | 0.814 | 0.512 | 0.476 | 0.7 | 0.562 | 0.517 |
| EBC-1 | 0.942 | 0.865 | 0.961 | 0.931 | 0.924 | – | – | – | – | – | 0.0988 | 0.119 | 0.116 | 0.115 | 0.0993 | – | – | – | – | – |
| EKVX | 0.96 | 0.931 | 0.946 | 0.962 | 0.968 | 0.351 | 0.401 | 0.441 | 0.292 | 0.374 | 1.09 | 0.758 | 0.715 | 0.661 | 0.592 | 0.705 | 0.68 | 0.698 | 0.711 | 0.839 |
| EMC-BAC-2 | 1.02 | 0.896 | 1.04 | 0.993 | 0.971 | 0.528 | 0.491 | 0.52 | 0.492 | 0.518 | 0.967 | 1.06 | 1.01 | 1.01 | 0.951 | 0.465 | 0.309 | 0.383 | 0.37 | 0.341 |
| EPLC-272H | 1.04 | 0.952 | 0.926 | 1.04 | 1.03 | 0.356 | 0.353 | 0.317 | 0.33 | 0.352 | 0.684 | 0.575 | 0.694 | 0.887 | 0.875 | 0.296 | 0.254 | 0.257 | 0.324 | 0.253 |
| H3255 | 0.903 | 0.82 | 0.963 | 0.946 | 1.01 | 0.298 | 0.322 | 0.306 | 0.31 | 0.312 | 0.79 | 0.818 | 0.903 | 0.844 | 0.978 | 0.552 | 0.582 | 0.603 | 0.602 | 0.616 |
| HARA | 0.962 | 0.782 | 1.1 | 1.14 | 1.05 | 0.269 | 0.226 | 0.215 | 0.26 | 0.291 | 0.889 | 0.838 | 0.991 | 0.932 | 0.98 | 0.433 | 0.201 | 0.516 | 0.454 | 0.435 |
| HCC-15 | 1.03 | – | 0.976 | 0.941 | 1 | 0.76 | – | 0.78 | 0.682 | 0.72 | 0.976 | – | 0.994 | 0.882 | 1.01 | 0.608 | – | 0.704 | 0.66 | 0.615 |
| HCC-44 | 0.987 | 0.867 | 0.97 | 0.935 | 0.974 | 0.985 | 0.999 | 0.94 | 0.899 | 0.918 | – | – | – | – | – | 0.573 | 0.383 | 0.525 | 0.522 | 0.575 |
